Experimental data taken from US11000033B2, “Ketone or oxime compound, and herbicide” (NISSAN CHEMICAL CORPORATION, priority 2014, dated 2021).

Assays:
Monochoria vaginalis = assay: Test Example 1: herbicidal activity, application before weed generation in submerged conditions (symbol C); assay type: in vivo; settings: application herbicide amount 320 g/ha
Procedure, shortened: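 Pre-emergence, paddy conditions: emulsifiable formulation diluted in water, dosed onto floodwater (4 cm depth) on sowing day. Alluvial soil; weeds sown mixed; rice transplanted at 2.5-leaf stage. Greenhouse 25–30 °C, 3 wk. Score 0–5 (5 = ≥90% kill, 0 = ≤5%).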

[1] = system: Echinochloa crus-galli var. crus-galli; assay: Test Example 3: herbicidal effect by foliage application, Wagner pot (symbol H); assay type: in vivo; settings: application herbicide amount 320 g/ha; for H (Echinochloa crus-galli var. crus-galli) herbicidal effect grade: Table 24
Procedure, shortened: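 The compound, formulated as an emulsion and diluted with water to a predetermined rate, is applied uniformly to leaves of two-week-old seedlings growing in submerged alluvial soil at 25–30 °C. Rice is included. Each plant is assessed 3 weeks later using defined criteria.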

SMILES: CON=C(C)CC1CC(OC(=O)N(C)C)=C(c2c(C)cc(-c3ccc(Cl)cc3)cc2C)C1=O (mixture of isomers) [6-063]
- Herbicidal effect grade, C: Monochoria vaginalis (Monochoria vaginalis): 3 (Herbicidal ratio of 40% or higher and lower than 70%)
- herbicidal effect on H (Echinochloa crus-galli var. crus-galli), grade 0-5 [1]: 4 (Herbicidal ratio of 70% or higher and lower than 90%)

SMILES: CC#Cc1cc(C)c(C2=C(O)CC(CC(C)=O)C2=O)c(C)c1 (stereo not drawn) [7-010]
- Herbicidal effect grade, C: Monochoria vaginalis (Monochoria vaginalis): 1 (Herbicidal ratio of 5% or higher and lower than 20%)
- herbicidal effect on H (Echinochloa crus-galli var. crus-galli), grade 0-5 [1]: 5 (Herbicidal ratio of 90% or more (almost completely withered))

SMILES: CC(=O)CC1CC(O)=C(c2c(C)cc(-n3cccn3)cc2C)C1=O (stereo not drawn) [7-024]
- Herbicidal effect grade, C: Monochoria vaginalis (Monochoria vaginalis): 2 (Herbicidal ratio of 20% or higher and lower than 40%)
- herbicidal effect on H (Echinochloa crus-galli var. crus-galli), grade 0-5 [1]: 5 (Herbicidal ratio of 90% or more (almost completely withered))

SMILES: CON=C(C)CC1CC(O)=C(c2c(C)cc(C)cc2SC)C1=O (stereo not drawn) [6-075]
- Herbicidal effect grade, C: Monochoria vaginalis (Monochoria vaginalis): 2 (Herbicidal ratio of 20% or higher and lower than 40%)
- herbicidal effect on H (Echinochloa crus-galli var. crus-galli), grade 0-5 [1]: 3 (Herbicidal ratio of 40% or higher and lower than 70%)

SMILES: COC(=O)CON=C(C)CC1CC(O)=C(c2c(C)cc(C)cc2C)C1=O (stereo not drawn) [1-023]
- Herbicidal effect grade, C: Monochoria vaginalis (Monochoria vaginalis): 0 (Herbicidal ratio of 5% or lower (almost no effect))
- herbicidal effect on H (Echinochloa crus-galli var. crus-galli), grade 0-5 [1]: 5 (Herbicidal ratio of 90% or more (almost completely withered))

SMILES: CON=C(C)C(C(C)=NOC)C1CC(O)=C(c2c(C)cc(C)cc2C)C1=O (stereo not drawn) [1-021]
- Herbicidal effect grade, C: Monochoria vaginalis (Monochoria vaginalis): 0 (Herbicidal ratio of 5% or lower (almost no effect))
- herbicidal effect on H (Echinochloa crus-galli var. crus-galli), grade 0-5 [1]: 2 (Herbicidal ratio of 20% or higher and lower than 40%)

SMILES: C=CCON=C(C)CC1CC(O)=C(c2c(C)cc(C)cc2C)C1=O (stereo not drawn) [1-018]
- Herbicidal effect grade, C: Monochoria vaginalis (Monochoria vaginalis): 2 (Herbicidal ratio of 20% or higher and lower than 40%)
- herbicidal effect on H (Echinochloa crus-galli var. crus-galli), grade 0-5 [1]: 5 (Herbicidal ratio of 90% or more (almost completely withered))

SMILES: CON=C(C)CC1CC(O)=C(c2c(C)cc(-c3ccc(Cl)cc3Cl)cc2C)C1=O (stereo not drawn) [6-088]
- Herbicidal effect grade, C: Monochoria vaginalis (Monochoria vaginalis): 0 (Herbicidal ratio of 5% or lower (almost no effect))
- herbicidal effect on H (Echinochloa crus-galli var. crus-galli), grade 0-5 [1]: 5 (Herbicidal ratio of 90% or more (almost completely withered))

SMILES: COc1cc(C)c(C2=C(O)CC(CC(C)=O)C2=O)c(C)c1 (stereo not drawn) [7-020]
- Herbicidal effect grade, C: Monochoria vaginalis (Monochoria vaginalis): 0 (Herbicidal ratio of 5% or lower (almost no effect))
- herbicidal effect on H (Echinochloa crus-galli var. crus-galli), grade 0-5 [1]: 4 (Herbicidal ratio of 70% or higher and lower than 90%)

SMILES: CON=C(C)CC1CC(O)=C(c2c(C)cc(C(C)=NOC)cc2C)C1=O (stereo not drawn) [6-065]
- Herbicidal effect grade, C: Monochoria vaginalis (Monochoria vaginalis): 3 (Herbicidal ratio of 40% or higher and lower than 70%)
- herbicidal effect on H (Echinochloa crus-galli var. crus-galli), grade 0-5 [1]: 5 (Herbicidal ratio of 90% or more (almost completely withered))

SMILES: CC(=O)CC1CC(O)=C(c2c(C)cc(Oc3ccc(C(F)(F)F)cn3)cc2C)C1=O (stereo not drawn) [7-019]
- Herbicidal effect grade, C: Monochoria vaginalis (Monochoria vaginalis): 0 (Herbicidal ratio of 5% or lower (almost no effect))
- herbicidal effect on H (Echinochloa crus-galli var. crus-galli), grade 0-5 [1]: 5 (Herbicidal ratio of 90% or more (almost completely withered))

SMILES: CON=C(C)CC1CC(OC(=O)COc2ccccc2)=C(c2c(C)cc(C)cc2OC)C1=O (stereo not drawn) [6-091]
- Herbicidal effect grade, C: Monochoria vaginalis (Monochoria vaginalis): 4 (Herbicidal ratio of 70% or higher and lower than 90%)
- herbicidal effect on H (Echinochloa crus-galli var. crus-galli), grade 0-5 [1]: 5 (Herbicidal ratio of 90% or more (almost completely withered))

SMILES: CCc1cc(Br)cc(C)c1C1=C(O)CC(CC(C)=O)C1=O (stereo not drawn) [7-003]
- Herbicidal effect grade, C: Monochoria vaginalis (Monochoria vaginalis): 0 (Herbicidal ratio of 5% or lower (almost no effect))
- herbicidal effect on H (Echinochloa crus-galli var. crus-galli), grade 0-5 [1]: 5 (Herbicidal ratio of 90% or more (almost completely withered))

SMILES: CON=C(C)C(=O)C1CC(O)=C(c2c(C)cc(C)cc2C)C1=O (stereo not drawn) [8-002]
- Herbicidal effect grade, C: Monochoria vaginalis (Monochoria vaginalis): 0 (Herbicidal ratio of 5% or lower (almost no effect))
- H (Echinochloa crus-galli var. crus-galli) herbicidal effect grade [1]: 0 (Herbicidal ratio of 5% or lower (almost no effect))

SMILES: CC(=O)CC1CC(O)=C(c2c(C)cc(Br)cc2C)C1=O (stereo not drawn) [7-002]
- Herbicidal effect grade, C: Monochoria vaginalis (Monochoria vaginalis): 0 (Herbicidal ratio of 5% or lower (almost no effect))
- herbicidal effect on H (Echinochloa crus-galli var. crus-galli), grade 0-5 [1]: 5 (Herbicidal ratio of 90% or more (almost completely withered))

SMILES: CON=C(C)CC1CC(OC(=O)N2CCOCC2)=C(c2c(C)cc(-c3ccc(Cl)cc3F)cc2C)C1=O (stereo not drawn) [6-089]
- Herbicidal effect grade, C: Monochoria vaginalis (Monochoria vaginalis): 3 (Herbicidal ratio of 40% or higher and lower than 70%)
- herbicidal effect on H (Echinochloa crus-galli var. crus-galli), grade 0-5 [1]: 5 (Herbicidal ratio of 90% or more (almost completely withered))

SMILES: CON=C(C)CC1CC(O)=C(c2c(C)cc(-c3ccc(F)cc3)cc2C)C1=O (mixture of isomers) [6-058]
- Herbicidal effect grade, C: Monochoria vaginalis (Monochoria vaginalis): 5 (Herbicidal ratio of 90% or more (almost completely withered))
- herbicidal effect on H (Echinochloa crus-galli var. crus-galli), grade 0-5 [1]: 5 (Herbicidal ratio of 90% or more (almost completely withered))

SMILES: CCc1cc(-c2ccc(Cl)cc2)cc(C)c1C1=C(OC(=O)N2CCOCC2)CC(CC(C)=NOC)C1=O (mixture of isomers) [6-064]
- Herbicidal effect grade, C: Monochoria vaginalis (Monochoria vaginalis): 0 (Herbicidal ratio of 5% or lower (almost no effect))
- herbicidal effect on H (Echinochloa crus-galli var. crus-galli), grade 0-5 [1]: 5 (Herbicidal ratio of 90% or more (almost completely withered))

SMILES: CON=C(C)CC1CC(O)=C(c2c(C)cc(-n3cncn3)cc2C)C1=O (stereo not drawn) [6-074]
- Herbicidal effect grade, C: Monochoria vaginalis (Monochoria vaginalis): 0 (Herbicidal ratio of 5% or lower (almost no effect))
- herbicidal effect on H (Echinochloa crus-galli var. crus-galli), grade 0-5 [1]: 4 (Herbicidal ratio of 70% or higher and lower than 90%)

SMILES: CON=C(C)CC1CC(OC(=O)C(C)(C)CCl)=C(c2c(C)cc(C)cc2C)C1=O (stereo not drawn) [1-016]
- Herbicidal effect grade, C: Monochoria vaginalis (Monochoria vaginalis): 4 (Herbicidal ratio of 70% or higher and lower than 90%)
- herbicidal effect on H (Echinochloa crus-galli var. crus-galli), grade 0-5 [1]: 5 (Herbicidal ratio of 90% or more (almost completely withered))

SMILES: CON=C(C)CC1CC(O)=C(c2c(C)cc(-c3ccc(Cl)cc3)cc2OC)C1=O (stereo not drawn) [6-077, 2-(4′-chloro-3-methoxy-5-methyl-[1,1′-biphenyl]-4-yl)-3-hydroxy-5-{2-(methoxyimino)propyl}cyclopent-2-enone]
- Herbicidal effect grade, C: Monochoria vaginalis (Monochoria vaginalis): 3 (Herbicidal ratio of 40% or higher and lower than 70%)
- herbicidal effect on H (Echinochloa crus-galli var. crus-galli), grade 0-5 [1]: 5 (Herbicidal ratio of 90% or more (almost completely withered))

SMILES: CON=C(C)CC1CC(O)=C(c2c(C)cc(-c3ccc(F)c(Cl)c3)cc2C)C1=O (stereo not drawn) [6-085]
- Herbicidal effect grade, C: Monochoria vaginalis (Monochoria vaginalis): 0 (Herbicidal ratio of 5% or lower (almost no effect))
- herbicidal effect on H (Echinochloa crus-galli var. crus-galli), grade 0-5 [1]: 5 (Herbicidal ratio of 90% or more (almost completely withered))

SMILES: CON=C(C)CC1CC(O)=C(c2c(C)cc(-n3cccn3)cc2C)C1=O (stereo not drawn) [6-073]
- Herbicidal effect grade, C: Monochoria vaginalis (Monochoria vaginalis): 1 (Herbicidal ratio of 5% or higher and lower than 20%)
- herbicidal effect on H (Echinochloa crus-galli var. crus-galli), grade 0-5 [1]: 5 (Herbicidal ratio of 90% or more (almost completely withered))

SMILES: CON=C(C)CC1CC(OC(=O)N2CCOCC2)=C(c2c(C)cc(-c3ccc(F)c(Cl)c3)cc2C)C1=O (stereo not drawn) [6-093]
- Herbicidal effect grade, C: Monochoria vaginalis (Monochoria vaginalis): 4 (Herbicidal ratio of 70% or higher and lower than 90%)
- herbicidal effect on H (Echinochloa crus-galli var. crus-galli), grade 0-5 [1]: 5 (Herbicidal ratio of 90% or more (almost completely withered))

SMILES: CC(=O)CC1CC(O)=C(c2c(C)cc(-c3ccccn3)cc2C)C1=O (stereo not drawn) [7-012]
- Herbicidal effect grade, C: Monochoria vaginalis (Monochoria vaginalis): 0 (Herbicidal ratio of 5% or lower (almost no effect))
- herbicidal effect on H (Echinochloa crus-galli var. crus-galli), grade 0-5 [1]: 5 (Herbicidal ratio of 90% or more (almost completely withered))

SMILES: CON=C(C)CC1CC(OC(=O)N2CCOCC2)=C(c2c(C)cc(-c3ccc(Cl)cc3)cc2OC)C1=O (stereo not drawn) [6-078, 2-(4′-chloro-3-methoxy-5-methyl-[1,1′-biphenyl]-4-yl)-4-{2-(methoxyimino)propyl}-3-oxocyclopent-1-ene-1-yl morpholine-4-carboxylate]
- Herbicidal effect grade, C: Monochoria vaginalis (Monochoria vaginalis): 4 (Herbicidal ratio of 70% or higher and lower than 90%)
- herbicidal effect on H (Echinochloa crus-galli var. crus-galli), grade 0-5 [1]: 5 (Herbicidal ratio of 90% or more (almost completely withered))

SMILES: CON=C(C)CC1CC(O)=C(c2c(C)cc(-c3ncccn3)cc2C)C1=O (mixture of isomers) [6-057]
- Herbicidal effect grade, C: Monochoria vaginalis (Monochoria vaginalis): 1 (Herbicidal ratio of 5% or higher and lower than 20%)
- herbicidal effect on H (Echinochloa crus-galli var. crus-galli), grade 0-5 [1]: 5 (Herbicidal ratio of 90% or more (almost completely withered))

SMILES: CON=C(C)CC1CC(O)=C(c2c(C)cc(-c3ccc(Cl)cc3F)cc2C)C1=O (stereo not drawn) [6-084]
- Herbicidal effect grade, C: Monochoria vaginalis (Monochoria vaginalis): 0 (Herbicidal ratio of 5% or lower (almost no effect))
- herbicidal effect on H (Echinochloa crus-galli var. crus-galli), grade 0-5 [1]: 5 (Herbicidal ratio of 90% or more (almost completely withered))

SMILES: CON=C(C)CC1CC(OC(=O)N2CCCC2)=C(c2c(C)cc(C)cc2OC)C1=O (stereo not drawn) [6-110]
- Herbicidal effect grade, C: Monochoria vaginalis (Monochoria vaginalis): 0 (Herbicidal ratio of 5% or lower (almost no effect))
- herbicidal effect on H (Echinochloa crus-galli var. crus-galli), grade 0-5 [1]: 5 (Herbicidal ratio of 90% or more (almost completely withered))

SMILES: CON=C(C)CC1CC(O)=C(c2c(C)cc(-c3ccsc3)cc2C)C1=O (stereo not drawn) [6-106]
- Herbicidal effect grade, C: Monochoria vaginalis (Monochoria vaginalis): 4 (Herbicidal ratio of 70% or higher and lower than 90%)
- herbicidal effect on H (Echinochloa crus-galli var. crus-galli), grade 0-5 [1]: 4 (Herbicidal ratio of 70% or higher and lower than 90%)

SMILES: CON=C(C)C(=NOC)C1CC(O)=C(c2c(C)cc(C)cc2C)C1=O (stereo not drawn) [8-003]
- Herbicidal effect grade, C: Monochoria vaginalis (Monochoria vaginalis): 0 (Herbicidal ratio of 5% or lower (almost no effect))
- H (Echinochloa crus-galli var. crus-galli) herbicidal effect grade [1]: 0 (Herbicidal ratio of 5% or lower (almost no effect))

SMILES: CON=C(C)CC1CC(OC(=O)N2CCOCC2)=C(c2c(C)cc(-c3ccc(F)cc3)cc2C)C1=O (mixture of isomers) [6-059]
- Herbicidal effect grade, C: Monochoria vaginalis (Monochoria vaginalis): 4 (Herbicidal ratio of 70% or higher and lower than 90%)
- herbicidal effect on H (Echinochloa crus-galli var. crus-galli), grade 0-5 [1]: 5 (Herbicidal ratio of 90% or more (almost completely withered))

SMILES: CC(=O)CC1CC(O)=C(c2c(C)cc(OCC(F)(F)F)cc2C)C1=O (stereo not drawn) [7-015]
- Herbicidal effect grade, C: Monochoria vaginalis (Monochoria vaginalis): 2 (Herbicidal ratio of 20% or higher and lower than 40%)
- herbicidal effect on H (Echinochloa crus-galli var. crus-galli), grade 0-5 [1]: 5 (Herbicidal ratio of 90% or more (almost completely withered))
